For orientation: IC50 means the concentration needed to halve the response being measured.

Like-named read-outs stand apart in the source and are kept apart here.

The target of the assay is PDE10 (UniProt Q9Y233). Kind of assay: PDE10 enzyme inhibition, IMAP TR-FRET assay (MPDE10A7 Enzyme Activity and Inhibition). In kind it is biochemical. In outline:
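PDE10A enzyme or tissue homogenate preincubated with compounds 30 min at room temperature, then fluorescein-labelled cAMP or cGMP added for 60 min. IMAP binding reagent stop, TR-FRET read. Values are mean IC50s, grouped into five potency classes.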
(In TR-FRET formats the signal depends on donor and acceptor labels being close together.)

Setting [1] is: PDE10 enzyme inhibition, average IC50 data for each compound, read-out: Average IC50.
Where [2] appears, read: IC50 class against PDE10, read-out: IC50.

For the molecule `COc1ncccc1-c1nccnc1Oc1ccc(Nc2nc3ccc(F)cc3s2)cc1` [drawing 959], the IC50 under setting [1] turned out to be 7.2 nM.

As for `c1ccc2sc(Nc3ccc(Oc4nccnc4C4CCOCC4)cc3)nc2c1` [Example 208, N-(4-(3-(tetrahydro-2H-pyran-4-yl)pyrazin-2-yloxy)phenyl)benzo[d]thiazol-2-amine], under setting [2], the IC50 is under 25 nM.

As for `O=C(c1ccc(Oc2nccnc2OCc2cccnc2)cc1)c1nc2ccccc2[nH]1` [Example 179, (1H-benzo[d]imidazol-2-yl)(4-(3-(pyridin-3-ylmethoxy)pyrazin-2-yloxy)phenyl)methanone], the IC50 under setting [2] was 100 to 250 nM.

In the case of `CN1CCC2(CCN(c3nccnc3Oc3ccc(C(=O)c4nc5ccccc5[nH]4)cc3)CC2)C1=O`, the IC50 under setting [1] turned out to be 12.8 nM.

Take `N#C[C@H]1CCN(c2nccnc2Oc2ccc(C(=O)c3nc4ccccc4[nH]3)cc2)C1` [drawing 829]: the IC50 under setting [1] turned out to be 1.32 nM.

As to `O=C(c1ccc(Oc2nccnc2C(=O)NC2(Cc3ccccc3)CC2)cc1)c1nc2ccccc2[nH]1` [Example 260, 3-(4-(1H-benzo[d]imidazole-2-carbonyl)phenoxy)-N-(1-benzylcyclopropyl) pyrazine-2-carboxamide], under setting [2], the IC50 was under 25 nM.

With `CC(C)(O)[C@@H]1CCCN1c1nccnc1Oc1ccc(Nc2nc3ccccc3s2)cc1` [Example 59, (S)-2-(1-(3-(4-(BENZO[D]THIAZOL-2-YLAMINO)PHENOXY)PYRAZIN-2-YL)PYRROLIDIN-2-YL)PROPAN-2-OL], under setting [2], the IC50 is under 25 nM.

For `OCCN1CCN(c2nccnc2Oc2ccc(Nc3nc4ccccc4s3)cc2)CC1` [Example 79, 2-(4-(3-(4-(benzo[d]thiazol-2-ylamino)phenoxy)pyrazin-2-yl)piperazin-1-yl)ethanol], the IC50 under setting [2] was under 25 nM.

As for `COCC(=O)N1CCC(c2nccnc2Oc2ccc(C(=O)c3nc4ccccc4[nH]3)cc2)CC1` [Example 232, 1-(4-(3-(4-(1H-benzo[d]imidazole-2-carbonyl)phenoxy)pyrazin-2-yl)piperidin-1-yl)-2-methoxyethanone], the IC50 under setting [2] was under 25 nM.

Turning to `O=C(c1ccc(Oc2nccnc2OCCN2CCOCC2)cc1)c1nc2ccccc2[nH]1` [drawing 855], under setting [1], the IC50 amounted to 89.5 nM.

For the molecule `COCC1CCN(c2nccnc2Oc2ccc(Nc3nc4ccccc4s3)cc2)CC1` [Example 87, N-(4-(3-(4-(methoxymethyl)-piperidin-1-yl)pyrazin-2-yl-oxy)phenyl)benzo[d]thiazol-2-amine], the IC50 under setting [2] is 25 to 100 nM.

As for `O[C@H]1CCC[C@H](c2nccnc2Oc2ccc(Nc3nc4ccccc4s3)cc2)C1` (racemic) [Example 192, (rac)-trans-3-(3-(4-(benzo[d]thiazol-2-ylamino)phenoxy)pyrazin-2-yl)cyclohexanol], the IC50 under setting [2] is under 25 nM.

In the case of `N#Cc1ccc(-c2nccnc2Oc2ccc(C(=O)c3nc4ccccc4[nH]3)cc2)cc1` [drawing 734], the IC50 under setting [1] is 17.5 nM.

In the case of `CC#CCOc1nccnc1Oc1ccc(C(=O)c2nc3ccccc3[nH]2)cc1` [Example 169, (1H-benzo[d]imidazol-2-yl)(4-(3-(but-2-ynyloxy)pyrazin-2-yloxy)phenyl)methanone], under setting [2], the IC50 lay in the range of 100 to 250 nM.

Consider `c1ccc2sc(Nc3ccc(Oc4nccnc4-c4cncnc4)cc3)nc2c1` [drawing 778], for which, under setting [1], the IC50 stood at 12.9 nM.

As for `O=C(c1ccc(Oc2nccnc2C2CCNCC2)cc1)c1nc2ccccc2[nH]1` [Example 230, (1H-benzo[d]imidazol-2-yl)(4-(3-(piperidin-4-yl)pyrazin-2-yloxy)phenyl)methanone], the IC50 under setting [2] is under 25 nM.

As for `CC1(C)CCC(=O)[C@@H](c2nccnc2Oc2ccc(C(=O)c3nc4ccccc4[nH]3)cc2)C1`, under setting [1], the IC50 stood at 154 nM.

As for `CC(=O)O[C@@H](C)C(=O)N1CCC(c2nccnc2Oc2ccc(C(=O)c3nc4ccccc4[nH]3)cc2)CC1` (stereo in doubt), the IC50 under setting [1] was 0.119 nM.

As to `CC(C)Oc1nccnc1Oc1ccc(C(=O)c2nc3ccccc3[nH]2)cc1` [drawing 844], the IC50 under setting [1] worked out at 56.6 nM.

For the molecule `C[C@@H](F)C(=O)N1CCC(c2nccnc2Oc2ccc(C(=O)c3nc4ccccc4[nH]3)cc2)CC1` (stereo in doubt), the IC50 under setting [1] stood at 0.132 nM.

`O=C1CCC[C@@H](c2nccnc2Oc2ccc(Nc3nc4ccccc4s3)cc2)C1` [drawing 1002]: the IC50 under setting [1] is 1.12 nM.

Turning to `O=C(c1ccc(Oc2nccnc2C2CCOCC2)cc1)c1nc2ccccc2[nH]1` [Example 181, (1H-benzo[d]imidazol-2-yl)(4-(3-(tetrahydro-2H-pyran-4-yl)pyrazin-2-yloxy)phenyl)methanone], the IC50 under setting [2] was under 25 nM.

Turning to `O=C(c1ccc(Oc2nccnc2[C@H]2CC[C@@H](O)CC2)cc1)c1nc2ccccc2[nH]1` [drawing 797], under setting [1], the IC50 came to 1.04 nM.

`C[C@H]1CN(c2nccnc2Oc2ccc(Nc3nc4ccccc4s3)cc2)CC(=O)N1` [drawing 835]: the IC50 under setting [1] was 17.1 nM.

With `COC(=O)C1(c2nccnc2Oc2ccc(Nc3nc4ccccc4s3)cc2)CCOCC1` [Example 212, methyl 4-(3-(4-(benzo[d]thiazol-2-ylamino)phenoxy)pyrazin-2-yl)tetrahydro-2H-pyran-4-carboxylate], the IC50 under setting [2] is under 25 nM.

As to `CC(=O)N1CCC(c2nccnc2Oc2ccc(Nc3nc4ccccc4s3)cc2F)CC1` [Example 248, 1-(4-(3-(4-(benzo[d]thiazol-2-ylamino)-2-fluorophenoxy)pyrazin-2-yl)piperidin-1-yl)ethanone], the IC50 under setting [2] was under 25 nM.

Regarding `CC(=O)N1CC=C(c2nccnc2Oc2ccc(C(=O)c3nc4ccccc4[nH]3)cc2)CC1` [drawing 751], the IC50 under setting [1] was found to be 1.16 nM.

For the molecule `COc1ccccc1-c1nccnc1Oc1ccc(C(=O)c2nc3ccccc3[nH]2)cc1` [drawing 944], the IC50 under setting [1] was found to be 2.9 nM.

Turning to `COC(=O)[C@@H]1CCN(c2nccnc2Oc2ccc(C(=O)c3nc4ccccc4[nH]3)cc2)C1` (stereo in doubt), the IC50 under setting [1] is 3.43 nM.

Consider `O=C(c1ccc(Oc2nccnc2-c2ccnc3ccccc23)cc1)c1nc2ccccc2[nH]1` [drawing 799], for which the IC50 under setting [1] turned out to be 3.59 nM.

As to `C[C@@H](F)C(=O)N1CCC(c2nccnc2Oc2ccc(C(=O)c3nc4ccccc4[nH]3)cc2)CC1` [drawing 976], the IC50 under setting [1] came to 0.005 nM.

Regarding `FC(F)(c1ccc(Oc2nccnc2C2CCOCC2)cc1)c1nc2ccccc2[nH]1`, the IC50 under setting [1] came to 52.9 nM.

For the molecule `Cc1ncccc1-c1nccnc1Oc1ccc(C(=O)c2nc3ccccc3[nH]2)cc1` [Example 109, (1H-benzo[d]imidazol-2-yl)(4-(3-(2-methylpyridin-3-yl)pyrazin-2-yloxy)phenyl)methanone], the IC50 under setting [2] is 25 to 100 nM.

`OC[C@@H]1CCCN1c1nccnc1Oc1ccc(Nc2nc3ccccc3s2)cc1` [Example 76, (S)-(1-(3-(4-(benzo[d]thiazol-2-ylamino)phenoxy)pyrazin-2-yl)pyrrolidin-2-yl)methanol]: under setting [2], the IC50 was under 25 nM.

On to `Fc1cc(Oc2nccnc2C2CCOCC2)ccc1Nc1nc2ccccc2s1` [drawing 877], for which, under setting [1], the IC50 was determined as 2.64 nM.

For the molecule `O=C(c1ccc(Oc2nccnc2C(=O)NCCc2ccccn2)cc1)c1nc2ccccc2[nH]1` [Example 257, 3-(4-(1H-benzo[d]imidazole-2-carbonyl)phenoxy)-N-(2-(pyridin-2-yl)ethyl)pyrazine-2-carboxamide], the IC50 under setting [2] is under 25 nM.

For the molecule `O=C(c1ccc(Oc2nccnc2C2CCN(CCF)CC2)cc1)c1nc2ccccc2[nH]1` [Example 226, (1H-BENZO[D]IMIDAZOL-2-YL)(4-(3-(1-(2-FLUOROETHYL)PIPERIDIN-4-YL)PYRAZIN-2-YLOXY)PHENYL)METHANONE], the IC50 under setting [2] was under 25 nM.

With `COCC1CCN(c2nccnc2Oc2ccc(Nc3nc4ccccc4s3)cc2)CC1` [drawing 741], the IC50 under setting [1] is 39.5 nM.

Turning to `COc1ncccc1-c1nccnc1Oc1ccc(C(=O)c2nc3ccccc3[nH]2)cc1` [drawing 866], under setting [1], the IC50 turned out to be 0.321 nM.

As for `OCc1ccc(-c2nccnc2Oc2ccc(Nc3nc4ccccc4s3)cc2)cn1` [drawing 804], the IC50 under setting [1] was 4.12 nM.

Take `O=S1(=O)CCN(c2nccnc2Oc2ccc(Nc3nc4ccccc4s3)cc2)CC1` [Example 75, N-(4-((3-(1,1-dioxido-4-thio-morpholinyl)-2-pyrazinyl)oxy)-phenyl)-1,3-benzothiazol-2-amine]: the IC50 under setting [2] was 250 to 1000 nM.

On to `CC1(C)CCC(=O)[C@H](c2nccnc2Oc2ccc(C(=O)c3nc4ccccc4[nH]3)cc2)C1`, for which, under setting [1], the IC50 was 41.8 nM.

On to `CC(Cc1ccccn1)NC(=O)c1nccnc1Oc1ccc(C(=O)c2nc3ccccc3[nH]2)cc1` (racemic) [Example 259, (rac)-3-(4-(1H-benzo[d]imidazole-2-carbonyl)phenoxy)-N-(1-(pyridin-2-yl)propan-2-yl)pyrazine-2-carboxamide], for which, under setting [2], the IC50 is under 25 nM.

Turning to `Cn1c(C(=O)c2ccc(Oc3nccnc3Cl)cc2)nc2ccccc21`, the IC50 under setting [1] amounted to 187 nM.

For the molecule `COc1ccc(-c2nccnc2Oc2ccc(C(=O)c3nc4ccccc4[nH]3)cc2)cn1` [Example 121, (1H-benzo[d]imidazol-2-yl)(4-(3-(6-methoxypyridin-3-yl)pyrazin-2-yloxy)phenyl)methanone], the IC50 under setting [2] was under 25 nM.

Turning to `CC(=O)N1CCC(c2nccnc2Oc2ccc(C(=O)c3nc4ccccc4[nH]3)cc2)C1` (stereo not drawn) [Example 240, 1-(3-(3-(4-(1H-benzo[d]imidazole-2-carbonyl)phenoxy)pyrazin-2-yl)pyrrolidin-1-yl)ethanone], under setting [2], the half-inhibitory concentration (IC50) was under 25 nM.

Consider `CN1CCC(c2nccnc2Oc2ccc(C(=O)c3nc4ccccc4[nH]3)cc2)CC1=O` (stereo not drawn) [drawing 926], for which the IC50 under setting [1] was 6.02 nM.

Turning to `CC1CN(c2nccnc2Oc2ccc(Nc3nc4ccccc4s3)cc2)CC(=O)N1` (racemic) [Example 94, 4-(3-(4-(benzo[d]thiazol-2-ylamino)phenoxy)pyrazin-2-yl)-6-methylpiperazin-2-one], the IC50 under setting [2] was under 25 nM.

`COc1ncc(F)cc1-c1nccnc1Oc1ccc(C(=O)c2nc3ccccc3[nH]2)cc1` [drawing 942]: under setting [1], the IC50 was determined as 2.95 nM.

Consider `c1ccc2sc(Nc3ccc(Oc4nccnc4-c4cnc5[nH]ccc5c4)cc3)nc2c1` [drawing 765], for which, under setting [1], the IC50 turned out to be 76 nM.

`CCOC(=O)[C@H]1CCCN(c2nccnc2Oc2ccc(C(=O)c3nc4ccccc4[nH]3)cc2)C1` [drawing 831]: the IC50 under setting [1] amounted to 0.843 nM.

The values are drawn from patent US20120277209A1, “PYRAZINE COMPOUNDS AS PHOSPHODIESTERASE 10 INHIBITORS” (Amgen Inc., priority 2009, published 2012).
